Patent US11607422B2, “Uttroside B and derivatives thereof as therapeutics for hepatocellular carcinoma” (Rajiv Gandhi Centre for Biotechnology, an Autonomous …, priority 2016, dated 2023)

Assays:
Assay type in all cases: cell-based, human
HepG2 cells = assay: Clonogenic assay in HepG2 cells; conditions: 72 h treatment, then 1 week
Protocol: FIG. 2A is a graph comparison of IC50 of Uttroside B in a panel of cancer cells of different origin. The cancer cell lines HeLa, A375, HepG2, MDA-MB-231, HL 60, A549 and HCT116 were treated with Uttroside B as indicated, incubated for 72 h and the cell viability was assessed by MTT assay. FIG. 2B is a graph showing dose dependent effect of Uttroside B in the liver cancer cell lines and in normal immortalized hepatocytes. The liver cancer cell lines HepG2, Hep3B, SKHEP-1, Huh-7 and normal hepatocytes (Chang liver), were treated with Uttroside B incubated for 72 h and the cell viability was assessed by MTT assay. FIG. 2C is a graph comparison of IC50 of Uttroside B with sorafenib. HepG2 cells were treated with Uttroside B as indicated, incubated for 72 h, and the cell viability was assessed by MTT assay. FIG. 2D is an image of the morphological changes induced by Uttroside B in HepG2 cells. HepG2 cells were treated with Uttroside B as indicated and incubated for 72 h. FIG. 2E is an image showing Uttroside B inhibits the clonogenic potential of HepG2 cells. HepG2 cells were treated with different concentrations of Uttroside B for 72 h and the clonogenic assay was performed. […] The clones developed were counted and plotted as a graph. Colony containing more than four cells was counted as one clone. […]

NF-κB in HepG2 cells = assay: Electrophoretic mobility shift assay of NF-κB; conditions: HepG2 nuclear extract, EMSA
Protocol: Stocks of crude extracts and isolated compound of S. nigrum was prepared in DMSO for the in vitro studies and stored at −20° C. The DMSO concentration in all studies, including controls, was ≤0.2%. Cell viability assay was performed after 72 h of drug treatment while whole cell lysate preparation and cell cycle analysis were done after 24 h and 48 h of drug treatment. For studying NF-κB and AP-1, Uttroside B was incubated for 2 h before extraction.
Radiolabeling of oligonucleotide probes for electrophoretic mobility shift assay:HepG2 Cells were treated with Uttroside B for two hours, scraped and suspended in 150 μL of lysis buffer (10 mM HEPES(pH 7.9), 10 mM KCl, 0.1 mM EDTA, 0.1 mM EGTA, 1 mM DTT, 0.5 mMphenylmethylsulfonyl fluoride, 2 μg/mL leupeptin, 2 μg/mL aprotinin, 0.5 mg/ml benzamidine) for 30 min, after which 4.5 μl of 10% Nonidet P-40 was added. […]

[1] = system: MAPK pathway in HepG2 cells; assay: Western blot of MAPK phosphorylation (p-JNK, p-38, p-42/44)
Protocol: FIGS. 4A-4E are images showing Uttroside B inhibits MAPK and mTOR signaling, some of the crucial survival signals in liver cancer. […] HepG2 cells were treated with Uttroside B for different time intervals (0-240 min) and the whole cell lysate was resolved on a 10% gel and immunoblotted against phospho-ERK1/2 and phospho-Akt antibodies. Taxol was used as a positive control. […] HepG2 cells were treated with Uttroside B at different time intervals and the whole cell lysate was resolved on an 8% gel and immunoblotted against phospho-mTOR (2448) and phospho-mTOR (2481) antibodies.
Western blot analysis. Approximately 0.5×10^6 cells were grown on 60 mm culture plates and exposed to drugs as indicated for the desired time. The cells were then scraped out, washed in ice cold 1× PBS and pelleted down at 13000 rpm for 2 min. […]

What does the source list for `C[C@H](CC[C@@]1(O)O[C@H]2C[C@H]3[C@@H]4CC[C@H]5C[C@@H](O[C@@H]6O[C@H](CO)[C@H](O[C@@H]7O[C@H](CO)[C@@H](O)[C@H](O[C@@H]8OC[C@@H](O)[C@H](O)[C@H]8O)[C@H]7O[C@@H]7O[C@H](CO)[C@@H](O)[C@H](O)[C@H]7O)[C@H](O)[C@H]6O)CC[C@]5(C)[C@H]4CC[C@]3(C)[C@H]2[C@@H]1C)CO[C@@H]1O[C@H](CO)[C@@H](O)[C@H](O)[C@H]1O` [Uttroside B]?
anti-clonogenic potential (colonies formed) (HepG2 cells): drastic dose dependent reduction in both number and size of the colonies formed; constitutive activation of NF-κB (NF-κB in HepG2 cells): could not produce any significant down-regulation; PMA-induced activation of p-JNK, p-38 and p-42/44 [1]: down-regulated; basal activation of MAPK pathway (p-42/44, p-JNK) [1]: significantly down-regulated
